Laboratory results: US20250228835A1, “PYRIDINYLOXYPYRIDINES AND RELATED COMPOUNDS AND THEIR USE IN TREATING MEDICAL CONDITIONS” (Rectify Pharmaceuticals, Inc., priority 2024, published 2025)

Biological target: T1, ABCD2 WT (Homo sapiens, UniProt Q9UBJ2)
T1 construct: expressed in transfected cells
T1 sequence (Q9UBJ2 1-740): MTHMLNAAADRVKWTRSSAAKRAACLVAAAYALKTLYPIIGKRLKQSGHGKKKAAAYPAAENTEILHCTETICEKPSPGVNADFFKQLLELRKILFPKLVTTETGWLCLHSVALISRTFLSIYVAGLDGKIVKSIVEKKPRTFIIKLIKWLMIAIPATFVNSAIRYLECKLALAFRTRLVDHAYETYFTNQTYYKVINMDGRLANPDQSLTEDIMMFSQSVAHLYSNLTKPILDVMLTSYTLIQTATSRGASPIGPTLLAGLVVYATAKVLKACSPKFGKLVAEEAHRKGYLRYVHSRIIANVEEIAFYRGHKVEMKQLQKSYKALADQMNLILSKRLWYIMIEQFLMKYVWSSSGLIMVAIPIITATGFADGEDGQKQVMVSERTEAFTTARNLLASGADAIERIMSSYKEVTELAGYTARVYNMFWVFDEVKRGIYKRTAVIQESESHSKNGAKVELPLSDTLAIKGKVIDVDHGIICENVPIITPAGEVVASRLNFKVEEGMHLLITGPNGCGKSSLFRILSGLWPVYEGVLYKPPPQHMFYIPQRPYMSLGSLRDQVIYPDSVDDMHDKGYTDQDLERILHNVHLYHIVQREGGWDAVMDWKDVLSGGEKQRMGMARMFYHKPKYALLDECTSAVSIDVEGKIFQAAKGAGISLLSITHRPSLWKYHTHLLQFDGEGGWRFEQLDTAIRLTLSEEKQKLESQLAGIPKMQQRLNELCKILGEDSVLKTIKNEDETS
Experiment: D2 correction dose-response assay: ABCD2 WT HiBit protein expression
Format: cell-based
Details: HEK-293/ABCD2 WT cells, 24 hours treatment, HiBit luminescence; class combines EC50 and Mean MaxAct (fold); read-out: ABCD2 WT EC50, Emax
How it was run: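 HEK-293 cells stably expressing HiBit-tagged human ABCD2 WT were treated with 11 doses (3-fold dilutions, top final 30 μM, 0.3% DMSO) for 24 h at 37 °C. Expression was measured by HiBit lytic luminescence after 1 h at 25 °C, giving EC50 and Emax.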

Compound | EC50 [µM]
Cc1nc(C2CCC2)nc(C)c1Oc1nc(-c2cncc(C#N)c2)ccc1NS(C)(=O)=O [Compound I-181] | > 25
Cc1nc(N2CC(S(C)(=O)=O)C2)nc(C)c1Oc1nc(-c2cncc(C#N)c2)ccc1NS(C)(=O)=O [Compound I-169] | 10 to 25
Cc1cc(C)c(Oc2nc(-c3cc[nH]c(=O)c3)ccc2NS(C)(=O)=O)c(C)n1 [Compound I-187] | > 25
Cc1cc(C)c(Oc2nc(-c3cncc(N4CC(F)(F)C4)c3)ccc2NS(C)(=O)=O)c(C)n1 [Compound I-195] | > 25
Cc1nc(C)c(Oc2nc(-c3cncc(C(F)F)c3)ccc2NS(C)(=O)=O)c(C)n1 [Compound I-191] | 10 to 25
Cc1cc(C(F)F)nc(C)c1Oc1nc(-c2cncc(Cl)c2)ccc1NS(C)(=O)=O [Compound I-202] | > 25
Cc1cc(C)c(Oc2nc(-c3cncc(C(C)(C)O)c3)ccc2NS(C)(=O)=O)c(C)n1 [Compound I-220] | > 25

Second part, the compound after the results:

EC50 [µM] | Compound
< 1 | Cc1cc(C2CC2)nc(C)c1Oc1nc(-c2cncc(C#N)c2)ccc1NS(=O)(=O)C1COC1 [Compound I-235]
< 1 | Cc1nc(Oc2nc(-c3cncc(C#N)c3)ccc2NS(C)(=O)=O)c(C)s1 [Compound I-107]
< 1 | Cc1cc(C)c(Oc2nc(-n3cnc(C)c3)ccc2NS(C)(=O)=O)c(C)c1 [Compound I-12]
1 to 10 | Cc1cc(C)c(Oc2nc(-c3cncc(CO)c3)ccc2NS(C)(=O)=O)c(C)n1 [Compound I-227]
< 1 | Cc1cc(C2CC2)c(Oc2nc(-c3cncc(C#N)c3)ccc2NS(C)(=O)=O)c(C)n1 [Compound I-171]
1 to 10 | Cc1nc(C)c(Oc2nc(-c3cncc(C#N)c3)ccc2NS(C)(=O)=O)c(C2CC2)n1 [Compound I-165]
1 to 10 | Cc1nc(OC2CC2)c(C(F)(F)F)cc1Oc1nc(-c2cncc(C#N)c2)ccc1NS(C)(=O)=O [Compound I-178]
< 1 | Cc1cc(C)c(Oc2nc(-c3cncc(C4CC4)c3)ccc2NS(C)(=O)=O)c(C)n1 [Compound I-232]
